Values quoted from earlier work in patent US20240041034A1, “ANTIMICROBIAL COMPOSITION COMPRISING A DIOCTYLDIMETHYLAMMONIUM COMPOUND” (The Procter & Gamble Company, priority 2022, published 2024).

Conditions: in water, in the absence of surfactant

## CCCCCCCC[N+](C)(C)CCCCCCCC.[Cl-] [DODMAC, dioctyldimethylammonium chloride]
  Critical Micelle Concentration (CMC): ~5000 ppm
